Source: a melting point compilation (Tetko et al.; mined from patent text by program, amines drawn as free bases though some values may be those of a salt)

Row | SMILES | melting point
1 | CN1C(=O)C2(CCN(CCCC(=O)c3ccc(F)cc3)CC2)c2ccccc21 | 95 to 96.5 °C
2 | CC(O)COc1cccc(N)c1C(N)=O (centres undefined) | 115 to 118 °C
3 | CN1CCC(O)(c2ccccc2Cc2ccccc2)C1 (centres undefined) | 108 to 109 °C
4 | O=C(C=Cc1ccccc1)SC(Cn1ccnc1)c1ccc(Cl)cc1Cl (centres undefined) | 139 to 141 °C
5 | CN1C(=O)N(C[C@H](CO)[C@@H](CC2CCCC2)C(=O)N2CCCCC2)C(=O)C1(C)C | 92 to 95 °C
6 | C=CCN1Cc2nc3c(cnn3C=C)c(N)c2C1=O | 190 to 191 °C
7 | CC(=O)Nc1cccc2c1C(C#N)C2 (centres undefined) | < 50 °C
8 | CNC(Cc1ccccc1NC(=O)C(C)(C)C)c1ccccc1C (centres undefined) | 77 to 79 °C
9 | C/C(=C(\C#N)C(N)=S)N1CCCN(c2ccccc2C)CC1 | 99 to 100 °C
10 | COC(=O)c1ccc(-c2nnc(-c3ccc(C(F)(F)F)cc3)o2)cc1 | 216 to 217 °C
11 | O=C(COC1CCCCO1)c1ccc(Cl)cc1 (centres undefined) | 57 °C
12 | CCOC(=O)CC(NC(C)=O)C(=O)c1ccco1 (centres undefined) | 82 to 84 °C
13 | CN(C)c1ccc(-c2cc(=S)ss2)nn1 | 265 °C
14 | C(=C\c1ccc2c(c1)COC(N[C@@H]1CCc3ccccc31)=N2)/c1ccccc1 | 162 °C
15 | CN(CCO)Cn1nc(-c2ccncc2)n(-c2ccccc2)c1=S | 173 to 174 °C
16 | OCc1ccc(I)nc1 | 102 °C
17 | Oc1cccc(F)c1OC(COCc1ccccc1)C(Cl)COCc1ccccc1 (centres undefined) | 77 to 79 °C
18 | CCCCCCCCNC(=O)C1CC1c1ccc(N2CC(C(=O)O)CC2=O)cc1 (centres undefined) | 214 °C
19 | c1ccc(Cn2cccc2-c2nc(Nc3ccc(-c4ccccc4)cc3)nc(Nc3ccc(-c4ccccc4)cc3)n2)cc1 | 185 to 186 °C
20 | Nc1ccccc1-c1nc(CCS(=O)(=O)CCO)no1 | 118 to 119 °C
21 | O=C(O)[C@@H]1C[C@H]1c1ccc([N+](=O)[O-])cc1 (relative stereo) | 195 to 196 °C
22 | CC(C)(C)n1ncc(SCc2ccc(Oc3ccc(C(F)(F)F)cc3)cc2)c(Cl)c1=O | 152 to 156 °C
23 | C=CCN(CCC)C1COc2cccc(O)c2C1 (centres undefined) | 78 to 80 °C
24 | Cc1ccc(C(CCN(C(C)C)C(C)C)(CCN(C(C)C)C(C)C)C(N)=O)cc1 | 97 to 100 °C
25 | CC(C)(C)OC(=O)N[C@@H](Cc1ccc(-c2ccc(F)cc2)cc1)C(=O)OCc1ccccc1 | 103 to 104 °C
26 | CC(C)c1cc(Oc2ccccc2)cc(C2CCCCC2)c1N | 108 to 110 °C
27 | Cc1nccn1CCCNC(=O)c1ccc(Cl)nc1 | 175 to 177 °C

Row | SMILES | melting point
28 | Cc1ccnc(-c2cncc(OC3SCC(O)C(O)C3O)c2)c1 (centres undefined) | 166 °C
29 | O=C1c2ccccc2C(=O)c2c(NC(=O)[C@@H]3C[C@H]3c3ccccc3)ccc(NC(=O)[C@@H]3C[C@H]3c3ccccc3)c21 (relative stereo) | 272 to 274 °C
30 | OC(c1cccs1)C1CCN(CCc2ccccc2)CC1 (centres undefined) | 123 to 125 °C
31 | CC(OCCO)n1cc(F)c(=O)[nH]c1=O (centres undefined) | 118 to 120 °C
32 | CC(SC1COC(c2ccc(C(=O)Nc3ccc(Cl)cc3)cc2)OC1)C(O)(Cn1cncn1)c1ccc(F)cc1F (centres undefined) | 210 °C
33 | COCC(=O)OC1(C(=O)CO)CCC2C3CCC4=CC(=O)CCC4(C)C3C(O)CC21C (centres undefined) | 185 °C
34 | CC12C=CC(O)CC1CCC1C2CCC2(C)C(C#N)CCC12 (centres undefined) | 129 to 133 °C
35 | CN(C)c1nc(N)c(C#N)nc1C#N | 201 to 202 °C
36 | Cc1cc(Br)cc(C)c1OCCO | 47 to 48 °C
37 | Cc1nc(N)c2nc(C)n(CCOC/C=C/c3ccccc3)c2c1C | 144 to 145 °C
38 | CNC(=O)c1cn(C)c(=O)cc1Nc1ccc(I)cc1F | 252 to 254 °C
39 | CC1(C)COC(c2ccccc2-c2ccc(C(=O)O)cc2)=N1 | 190 to 193 °C
40 | Cc1ncc(-c2ccccc2)s1 | 72 to 74 °C
41 | COc1ccc(COc2ccc(C=C(C=O)C(C=O)=Cc3ccc(OCc4ccc(OC)cc4)cc3)cc2)cc1 | 218 to 220 °C
42 | CC(C)C[C@H](NC(=O)OC(C)(C)C)C(=O)N[C@H](C(=O)NN)[C@@H](C)O | 146 to 148 °C
43 | COC(=O)C1=C(C)NC(C)=C(P(=O)(OC(C)C)OC(C)C)C1c1cccc([N+](=O)[O-])c1 (centres undefined) | 205 to 207 °C
44 | CC/C=C\C#CCCCCCCCCCCO | 6 to 7 °C
45 | CCCCCCCCCCCCCCCCSCCCCCCCCCCC(=O)NN | 108 °C
46 | C=C=CC1(NC(=O)c2ccccc2)CCCNC1=O (centres undefined) | 203 to 204 °C
47 | CN(CCOc1ccc(/C=C/CO)cc1F)c1ccccn1 | 80 to 81 °C
48 | C[C@H](CC(F)(F)F)[C@@H](CO)NS(=O)(=O)c1ccc(Cl)s1 | 132 to 133 °C
49 | CC(C)(CNC(=O)CSCC(=O)O)SN=O | 47 to 51 °C
50 | N#Cc1ccc(O[C@H]2CC[C@H](NC(=O)Nc3ccc(OC(F)(F)F)cc3)CC2)cc1 | 186 to 189 °C
51 | CCOC(=NC(=O)OC)NC(=O)Nc1ccc(Cl)cc1Cl | 92 to 93 °C
52 | CCCOc1ccc(-n2c(C(F)(F)F)nn(C)c2=S)cc1 | 68 to 70 °C
53 | COc1noc2c1CN(C(C)=O)CC2 | 40 to 42 °C
54 | Cn1cnc2c1c(=O)n(CCCBr)c(=O)n2C | 142 to 144 °C

Now from value to compound:

Row | melting point | SMILES
55 | 150 °C | CCn1c(-c2ccnc(N)c2)nnc1C(C)(C)Oc1c(F)cc(Cl)cc1F
56 | > 300 °C | NC(=O)C1CCN(C(=O)c2ccc(NCc3cnc4nc(N)nc(N)c4n3)cc2)CC1
57 | 129 °C | COC(=O)c1ccc2cc(OC)ccc2n1
58 | > 300 °C | Nc1scc2c(C(=O)O)nn(-c3ccc(Br)cc3)c(=O)c12
59 | 108 to 110 °C | CCCCNC(=O)c1ccc(Cl)c(-n2nc(CCCC)n(Cc3ccc(-c4ccccc4S(N)(=O)=O)cc3F)c2=O)c1
60 | 144 °C | CCCn1nc(CC)c(C(=O)OC)c1Cc1ccc(-c2ccccc2S(N)(=O)=O)cc1
61 | 73 to 74 °C | O=C1C2=C(CCCC2)C(=O)N1c1ccc(F)cc1F
62 | 168 to 170 °C | COc1nc(SCC(N)c2ncco2)cnc1NS(=O)(=O)c1cccc(Cl)c1Cl (centres undefined)
63 | 175 to 180 °C | C#CC[C@@H](N)c1nc2cc(Cl)ccc2c(=O)n1Nc1ccccc1
64 | 220 to 221 °C | CCOc1ccc2c(S(=O)(=O)c3ccc(O)cc3)c(C(C)C)cn2c1
65 | 186 to 187 °C | Cn1nc(-c2ccc(OCCCCl)cc2)ccc1=O
66 | 125 to 128 °C | CCOCCCOc1ccc(-c2ccc3c(c2)C=C(C(=O)OC)CCN3C(=O)OC(C)(C)C)cc1
67 | 96 to 97 °C | CCOC(=O)NC(C)C(=O)c1ccc2cc(OC)ccc2c1 (single isomer, unassigned; (+))
68 | 163 to 165 °C | CCOc1ccc(S(=O)(=O)N2CCNCC2)cc1-c1nc2c(OC)cccc2c(=O)[nH]1
69 | 88 to 90 °C | CCNC(=O)C1=C(OC(C)C)c2cc(OC)ccc2S1=O (centres undefined)
70 | 176 to 178 °C | CCCCCCCNC(=O)Nc1ccc(-n2cccn2)cc1C(=O)NCC1CCN(C(c2ccccc2)c2ccccc2)CC1
71 | 170 to 190 °C | CCOC(=O)c1cn(C2CC2)c2c(F)c(N3CC(CNC(C)=O)C3)c(F)cc2c1=O
72 | 45 to 46.5 °C | CCOC(=O)c1cccc(OCc2ccc3ccccc3c2)c1
73 | 208 to 210 °C | Brc1ccc(-c2nc3n(c2-c2ccc(Br)cc2)CCS3)cc1
74 | 78 to 79 °C | CCc1nccn1-c1nc(-c2ccc(Cl)cc2)c(CCCOc2ccccc2OC)o1
75 | 100 to 103 °C | Cc1ccc(S(=O)(=O)OCC2Cc3cccc(-c4ccccc4Cl)c3O2)cc1 (centres undefined)
76 | 185 to 189 °C | COc1ccc(OC)c(S(=O)(=O)n2c(CCC(=O)O)cc3cc(Cl)ccc32)c1
77 | 69.5 to 70.5 °C | COC(=O)c1ccc(Br)cc1COc1ccccc1

Row | melting point | SMILES
78 | 107 to 109 °C | CC(C)N1CCOC(COc2cccc3c2CC=C3)C1 (centres undefined)
79 | 282 °C | Cc1cc(-c2ccc(Cl)c(Cl)c2)nc(-n2cnc(-c3ccc(S(N)(=O)=O)cc3)c2)n1
80 | 155 to 157 °C | CCCn1nc(-c2ccc(F)cc2)c(-c2ccc(S(C)(=O)=O)cc2)cc1=O
81 | 137 to 138 °C | CC(C)Oc1cc(CCC(=O)NS(=O)(=O)C2CCCCC2)n(Cc2ccc(Cl)cc2Cl)n1
82 | 204 to 205 °C | O=Cc1ccc(NC(=O)c2cc(F)cc(N3CCOCC3)c2)c2ccccc12
83 | 214 to 216 °C | CN(C)C(=O)N1CCN(Cc2ccc3c(c2)-c2[nH]nc(-c4ccsc4)c2C3)CC1
84 | 147 °C | CCOCCNc1ncc(Cc2cc(OC)c(OC)c(OC)c2)c(N)n1
85 | 244 to 246 °C | O=C(O)c1ccc(-n2c(-c3ccccc3)cc3c2CCCC3)cc1
86 | 259 to 262 °C | N#CCCc1cc(C(=O)O)cc(S(N)(=O)=O)c1Oc1ccccc1
87 | 86.4 °C | CCC1(CC)CSc2ccccc2N(c2ccccc2)C1=O
88 | 148 to 149 °C | COc1ccc(-n2nc(Sc3ccc(C)cc3)c(C)c(C#N)c2=O)cc1
89 | 207 °C | Cc1cccc(NC(=O)NCC(=O)N(CC(=O)OC(C)(C)C)c2ccccc2C(=O)N2CCCC(C)(C)C2)c1
90 | 183 to 184 °C | CC(C)Oc1cc(CCC(=O)NS(=O)(=O)Cc2ccccc2)n(Cc2ccc(Cl)cc2Cl)n1
91 | 78 to 80 °C | CC(=O)Oc1c(Cl)c(C)nc(C)c1-c1ccc(Oc2ccc(OC(F)(F)F)cc2)cc1
92 | 138 to 139 °C | Cc1c(-c2ccnc(Cl)n2)cccc1[N+](=O)[O-]
93 | 242 to 243 °C | O=C(O)c1ccc2c(c1)nc(-c1ccc(OC(c3cccc(F)c3)c3cccc(F)c3)cc1F)n2C1CCCCC1
94 | > 300 °C | Cc1[nH]c(=O)c2c(ccc3nc(Nc4c(Cl)cccc4Cl)n(C)c32)c1CC(=O)N1CCOCC1
95 | 235 to 237 °C | COc1ccc(-c2c3c(c(C)c4ccc(OC)cc24)C(=O)NC3)cc1
96 | 273 to 275 °C | COc1ccccc1C=C1CCc2c1oc1ccc(C(=O)O)cc1c2=O
97 | 169 to 170 °C | COc1cc(COc2nn(C)cc2C(=O)O)ccc1OCc1nc(-c2ccccc2)oc1C
98 | 126 to 127 °C | Cn1c(CO)ccc1S(=O)(=O)N1CCC(CCO)(Sc2cc(C(C)(C)C)c(O)c(C(C)(C)C)c2)CC1
99 | 200 to 201 °C | CS(=O)(=O)c1ccc(-c2nn3c4c(oc3c2-c2ccc(F)cc2)COCC4)cc1
